Experimental data from PMC3823594, “Conformational Changes Underlying Pore Dilation in the Cytoplasmic Domain of Mammalian Inward Rectifier K^+ Channels” (PLoS ONE, 2013).

Legend:
Kir3.2 E236A = biological target: T1, Kir3.2 E236A (Mus musculus, UniProt P48542, E236A); assay: Two-electrode voltage clamp, ACh-dependent (m2R-dependent) K+ current activation; type: cell-based; settings: Kir3.2 E236A with porcine m2R in Xenopus oocytes; −120 mV; Hill equation fit
T1 sequence (P48542 19-425 E236A): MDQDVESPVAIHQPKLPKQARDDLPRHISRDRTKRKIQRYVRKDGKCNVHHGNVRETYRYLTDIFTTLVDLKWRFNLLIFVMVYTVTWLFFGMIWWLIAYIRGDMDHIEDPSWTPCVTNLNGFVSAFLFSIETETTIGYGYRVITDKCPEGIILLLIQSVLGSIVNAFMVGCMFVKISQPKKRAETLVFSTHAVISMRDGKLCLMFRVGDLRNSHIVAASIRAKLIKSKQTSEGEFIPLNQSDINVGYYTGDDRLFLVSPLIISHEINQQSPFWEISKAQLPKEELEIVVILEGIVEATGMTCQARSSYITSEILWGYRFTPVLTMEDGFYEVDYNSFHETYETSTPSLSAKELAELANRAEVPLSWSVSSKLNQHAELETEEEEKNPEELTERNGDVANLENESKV
T1 sequence (P06199 1-466 partner): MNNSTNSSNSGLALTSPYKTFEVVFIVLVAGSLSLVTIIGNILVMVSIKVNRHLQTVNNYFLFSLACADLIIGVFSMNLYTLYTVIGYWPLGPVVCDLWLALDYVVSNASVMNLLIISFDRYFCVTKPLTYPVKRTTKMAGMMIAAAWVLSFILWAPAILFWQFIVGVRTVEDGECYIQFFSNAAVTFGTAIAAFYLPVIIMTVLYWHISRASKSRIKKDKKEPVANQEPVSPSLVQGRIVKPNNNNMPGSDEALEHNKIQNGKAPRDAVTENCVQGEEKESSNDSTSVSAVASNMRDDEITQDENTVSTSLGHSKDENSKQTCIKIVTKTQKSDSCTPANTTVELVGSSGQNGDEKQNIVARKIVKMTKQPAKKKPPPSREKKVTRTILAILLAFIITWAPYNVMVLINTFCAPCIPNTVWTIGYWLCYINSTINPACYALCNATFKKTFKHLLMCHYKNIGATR

Kir3.2 WT = biological target: T2, Kir3.2 WT (Mus musculus, UniProt P48542); assay: as above; type: cell-based; settings: Kir3.2 WT with porcine m2R in Xenopus oocytes; −120 mV; Hill equation fit
T2 sequence (P48542 1-425): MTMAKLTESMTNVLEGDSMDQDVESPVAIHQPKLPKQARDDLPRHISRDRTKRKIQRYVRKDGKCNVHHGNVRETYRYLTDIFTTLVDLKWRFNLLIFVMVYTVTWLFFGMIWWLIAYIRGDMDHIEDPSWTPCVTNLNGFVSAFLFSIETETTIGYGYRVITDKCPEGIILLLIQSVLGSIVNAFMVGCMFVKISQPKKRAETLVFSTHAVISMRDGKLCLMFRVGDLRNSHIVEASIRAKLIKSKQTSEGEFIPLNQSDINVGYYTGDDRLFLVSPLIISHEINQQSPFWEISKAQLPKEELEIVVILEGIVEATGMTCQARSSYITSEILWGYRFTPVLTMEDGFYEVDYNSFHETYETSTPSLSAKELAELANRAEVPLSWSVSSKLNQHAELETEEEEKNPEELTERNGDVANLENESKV
T2 sequence (P06199 1-466 partner): T1 sequence (P06199 1-466 partner)

## CC(=O)OCC[N+](C)(C)C [ACh, acetylcholine]
Kir3.2 E236A
  Hill coefficient: 1.12 ± 0.04
Kir3.2 WT
  Hill coefficient: 0.83 ± 0.06
